Laboratory results: paper PMC7093532, “Iron bioavailability from bouillon fortified with a novel ferric phytate compound: a stable iron isotope study in healthy women (part II)” (Scientific Reports, 2020)
Read-outs that look alike come from different tables or passages of the source.

Experiments:
[1] = cited from earlier work
[2] = dogs, cited from earlier work
[3] = cited from earlier work; remark: listed apart in the source
[4] = Stable iron isotope absorption study in healthy adult women (erythrocyte incorporation of oral isotopic labels)
Description: The human study was a controlled, single blind (to the subjects), single center trial. Healthy adult women (n = 23) consumed 6 different types of investigational products in random order with a cross-over design: bouillon with and without corn porridge fortified either with [^58Fe]-PA-HCP, [^54Fe]-SO4, or [^57Fe]-PP, resulting in 6 different test meal sequences. The sequences built up a Partial Williams Latin square, balanced for first order carry over. The experimental phase lasted for a period of 33 days.
The human study was conducted between December 2016 and February 2017 at the Laboratory of Human Nutrition of the ETH Zurich. […] The study procedure was explained in detail and written informed consent was obtained. An interview was conducted, weight and height were measured and a venous blood sample was drawn to assess whether participants fulfilled inclusion and exclusion criteria (Hb, Ht, number of erythrocytes, PF). […] The labelled iron-fortified test meals were administered on days 1, 2, 3, 17, 18 and 19 (Fig. 3). Test meals were administered between 07:00 and 09:30 after an overnight fast. The participants consumed the complete test meal and a glass of 300 mL ultrapure water in the presence of the investigators. […] Quantitative consumption of the investigational product was ensured by washing the glass test meal container 2 times with 10 mL of ultrapure water. After consuming the test meals, participants were not allowed to eat or drink for 3 h.
Venous blood samples were collected after an overnight fast on day 1 (baseline), day 17 and day 33 (endpoint) to determine iron status and iron absorption from the test meals. Iron absorption was determined by quantifying the incorporation of oral stable isotopic labels into erythrocytes. Adverse events and concomitant medication were inquired and documented during the entire study. All experiments were performed in accordance with relevant guidelines and regulations. The study was approved by the ethics Committee of the Canton Zurich, Switzerland (KEK-ZH-Nr. 2016–01472). Participants gave informed written consent before participation in the study and received a symbolic reimbursement at the end of the trial. The study was registered at clinicaltrials.gov as NCT02993835 on December 15, 2016.
The bouillon meal was prepared from 300 g ultrapure water and 7 g commercial vegetable bouillon powder (Maggi Gemüse Bouillon, Maggi, Singen, Germany) per serving. The bouillon contained iodized salt, dehydrated vegetables (onion, carrot, spinach, celery), yeast extracts, white sugar, potato starch, vegetable extracts (carrot, leek, onion, garlic), sunflower seed oil, natural flavours, spices (curcumin, paprika, nutmeg), chervil, caramelized sugar and natural celery flavour. […] The inhibitory meal was a corn porridge, prepared from 300 g ultrapure water, 7 g commercial vegetable bouillon powder and 50 g whole corn flour per serving (Farina per polenta integrale, Paolo Bassetti, Pianezzo, Switzerland) to achieve an absorption-inhibiting PA:Fe molar ratio of 5.0[31],[40], representative of a moderately inhibitory meal. Whole corn flour has a phytic acid content of about 1–2%, which is higher than in wheat (0.9%) and rice (0.7%)[12],[41]. Test meals were prepared the day before each feeding and stored in individual portions in a refrigerator overnight. On the day of administration, test meals were heated in a microwave oven. The pre-weighed vials containing the labeled iron compounds were added to the test meals and were rinsed 2 times with 2 mL of ultrapure water. […] Bouillon meals further contained 0.1 mg intrinsic iron and the inhibitory meals contained 0.8 mg Fe from the corn flour.

[5] = PF < 40 µg/L, bouillon + inhibitory meal
[6] = PF ≥ 40 µg/L, bouillon + inhibitory meal

Description for Caco-2 cells: In parallel to the in vivo human study, in vitro bioaccessibility of the iron compounds was assessed using a Caco-2 cell assay by assessing the amount of ferritin formed in response to the exposure to different digests. Iron fortified bouillon and bouillon with whole corn flour were prepared following the same procedure reported for the human study using [^58Fe]-PA-HCP, [^57Fe]-PP and [^54Fe]-SO4 at the level of 2.1 mg iron/3.3 g of bouillon mass through dry mixing. The resulting fortified bouillon mass was split in five fractions. Three fractions were analysed to assess iron homogeneity in the sample via Inductively Coupled Plasma Optical Emission Spectrometry (ICP-OES) as reported earlier[48] and the remaining two fractions were sent to USDA-ARS Robert Holley Center for Agriculture and Health (Ithaca, NY, USA) to determine in vitro fractional bioaccessibility (IVFBA). […]
In vitro relative bioaccessibility (IVRBA) of iron from the 2 meals with the 3 iron compounds was calculated based on ferritin formation in the Caco-2 cells: Invitrorelativebioaccessibility(IVRBA)=ngferrittinoffortifiedsample/mgproteinoffortifiedsample/ngferrittinofsamplefortifiedwith[^54Fe]SO4/mgproteinofsamplefortifiedwith[^54Fe]SO4×100
In the in vitro study, the IVFBAs were also approximately log normally distributed and analysed by robust ANOVA. […]

## O=P(O)(O)OC1C(OP(=O)(O)O)C(OP(=O)(O)O)C(OP(=O)(O)O)C(OP(=O)(O)O)C1OP(=O)(O)O.[Fe+3] (stereo not drawn) [monoferric phytate]
[1]; humans
  iron absorption: absorbed at least as well as the common pool of non-heme dietary iron
[2]; added to meals
  absorption: equal to the major pool of dietary inorganic iron
[2]
  bioavailability: highly bioavailable
[3]; rat study
  relative biological value of iron: equivalent to common iron fortificants such as ferrous ammonium sulfate
[3]; rats
  bioavailability: highly bioavailable

## O=P([O-])([O-])OP(=O)([O-])[O-].O=P([O-])([O-])OP(=O)([O-])[O-].O=P([O-])([O-])OP(=O)([O-])[O-].[Fe+3].[Fe+3].[Fe+3].[Fe+3] [FePP, Ferric pyrophosphate]
[4]; PF < 40 µg/L
  factor (FIA, bouillon vs bouillon + inhibitory meal): 6.7
  factor (RBV, bouillon + inhibitory meal vs bouillon): 1.2
[4]; PF < 40 µg/L, bouillon
  FIA, geo-mean: 1.9%
  RBV, geo-mean: 5.8%
[4]; [5]
  FIA, geo-mean: 0.3%
  RBV, geo-mean: 7.1%
[4]; PF ≥ 40 µg/L
  factor (FIA, bouillon vs bouillon + inhibitory meal): 6.2
  factor (RBV, bouillon + inhibitory meal vs bouillon): 0.9
[4]; PF ≥ 40 µg/L, bouillon
  FIA, geo-mean: 1.7%
  RBV, geo-mean: 8.8%
[4]; [6]
  FIA, geo-mean: 0.3%
  RBV, geo-mean: 8.3%
[4]; all participants
  Factor by which FIA is lower in the inhibitory meal compared to bouillon: 5.9
  Factor by which RBV is higher in the inhibitory meal compared to bouillon: 1.2
[1]; fortified bouillon cubes, mean PF of participants 9.4 µg/L
  RBV: 13%

## Diphosphate sodium salt
[1]; bouillon, with the diphosphate added (4.4% without)
  fractional absorption: 6.4%
[1]; in vivo
  relative bioavailability: 13–23%

## ferrous sulfate [FeSO4]
[4]; in vivo
  Factor by which FIA is lower in the inhibitory meal compared to bouillon: 6.8
Caco-2 cells
  In vitro fractional bioaccessibility (IVFBA), geo-mean: 9.6%
